Results published in US9920075B2, “Triazolopyridine and triazolopyrimidine inhibitors of myeloperoxidase” (BRISTOL-MYERS SQUIBB COMPANY, priority 2014, dated 2018).
Where two headings read alike, the source gives them in different places.

Tests used:
Assay type in all cases: biochemical
myeloperoxidase (MPO) [1] = molecular target: T1, myeloperoxidase (MPO) (Homo sapiens, UniProt P05164); test: MPO chlorination assay (APF assay)
T1 sequence (P05164 49-745): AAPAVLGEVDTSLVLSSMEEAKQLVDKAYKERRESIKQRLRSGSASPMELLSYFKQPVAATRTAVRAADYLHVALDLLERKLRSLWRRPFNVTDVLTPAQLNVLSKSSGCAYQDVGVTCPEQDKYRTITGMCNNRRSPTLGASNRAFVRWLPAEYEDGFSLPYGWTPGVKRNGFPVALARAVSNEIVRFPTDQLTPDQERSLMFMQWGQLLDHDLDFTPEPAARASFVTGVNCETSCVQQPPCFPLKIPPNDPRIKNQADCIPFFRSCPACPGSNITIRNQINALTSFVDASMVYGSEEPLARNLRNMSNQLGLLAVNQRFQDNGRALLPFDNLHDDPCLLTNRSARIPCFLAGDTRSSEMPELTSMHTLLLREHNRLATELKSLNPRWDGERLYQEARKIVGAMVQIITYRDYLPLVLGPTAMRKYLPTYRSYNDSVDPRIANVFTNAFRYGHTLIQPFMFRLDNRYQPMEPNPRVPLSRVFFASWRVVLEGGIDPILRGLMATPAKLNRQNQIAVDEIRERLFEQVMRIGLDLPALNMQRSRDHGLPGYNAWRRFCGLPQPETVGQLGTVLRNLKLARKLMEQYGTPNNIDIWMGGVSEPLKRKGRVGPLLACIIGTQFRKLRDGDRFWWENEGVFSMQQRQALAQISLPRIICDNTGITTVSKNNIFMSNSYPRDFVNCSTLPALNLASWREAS
Description: [formula] where A=minimal Y value (activity level of inhibited sample), B=maximal Y value (activity level of uninhibited sample), C=Log IC50, D=Hill Slope, x=concentration of inhibitor. MPO Chlorination Assay (APF Assay)
MPO chlorination activity was measured in 100 mM KPi (pH 7.4) by utilizing the non-fluorescent reagent Aminophenyl fluorescein (APF, Invitrogen Cat. #A36003). APF is cleaved by (—OCl) to yield the fluorescent compound fluorescein. […] Enzyme, inhibitor, and chloride were preincubated for ten minutes at room temperature.
After the ten minute preincubation, 25 μL of an APF mixture containing […], 120 mM NaCl and 10 μM H2O2 was added to the plate using the internal dispensing system of a Hammatsu FDSS 6000. […] IC50 values for inhibitors were calculated by taking the slope of the linear portion of the kinetic measurement (20 seconds to ˜80-120 secs).
IC50 values were calculated by determining the slope of the linear portion of the kinetic trace (180-540 secs), and using that calculated slope to determine % inhibition occurring at each concentration of inhibitor using the following equation:
(§1) [formula] where A=minimal Y value (activity level of inhibited sample), B=maximal Y value (activity level of uninhibited sample), C=Log IC50, D=Hill Slope, x=concentration of inhibitor. EPX Bromination Assay

myeloperoxidase (MPO) [2] = molecular target: T1, myeloperoxidase (MPO); test: MPO peroxidation assay (Amplex Red assay); conditions: MPO peroxidation, 100 mM KPi pH 7.4, ten minute preincubation
Summary of the method: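 Enzyme and compound preincubated 10 min at room temperature in 100 mM KPi, pH 7.4. Amplex Red (200 μM) plus H2O2 (10 mM) mixture then added, peroxidase oxidation to fluorescent resorufin followed kinetically. IC50 from slope over 180–540 s, converted to % inhibition and fitted to a four-parameter Hill equation.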

EPX = molecular target: T2, EPX (Homo sapiens, UniProt P11678); test: EPX bromination assay
T2 construct: purchased Lee Biosolutions 342-60
T2 sequence (P11678 251-715 limits assumed): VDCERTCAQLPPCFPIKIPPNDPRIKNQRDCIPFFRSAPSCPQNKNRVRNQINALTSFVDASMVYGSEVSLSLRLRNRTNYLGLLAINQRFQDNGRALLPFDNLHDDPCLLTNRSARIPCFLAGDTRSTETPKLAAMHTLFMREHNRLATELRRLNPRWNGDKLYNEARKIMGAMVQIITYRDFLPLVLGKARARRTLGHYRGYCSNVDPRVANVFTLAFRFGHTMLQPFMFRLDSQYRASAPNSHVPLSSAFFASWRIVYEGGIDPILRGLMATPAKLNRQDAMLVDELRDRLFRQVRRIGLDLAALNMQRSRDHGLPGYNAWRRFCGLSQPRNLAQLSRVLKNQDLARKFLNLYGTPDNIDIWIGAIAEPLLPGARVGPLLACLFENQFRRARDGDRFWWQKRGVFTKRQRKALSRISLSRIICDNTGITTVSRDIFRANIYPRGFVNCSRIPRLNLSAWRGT
T2 sequence (P11678 140-250 limits assumed): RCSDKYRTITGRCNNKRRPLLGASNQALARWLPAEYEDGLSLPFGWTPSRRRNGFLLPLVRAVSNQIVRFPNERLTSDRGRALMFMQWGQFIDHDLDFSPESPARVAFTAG
Description: as §1
EPX bromination activity was measured in 100 mM KPi (pH 7.4) by monitoring the H2O2 catalyzed formation of 3-bromo tyrosine from tyrosine and potassium bromide. […] Enzyme and compound were preincubated for ten minutes at room temperature.
The reaction was allowed to proceed for 15 minutes, at which time it was quenched with 10 μL of 20% TCA. The final concentrations of all components were 0.3 μM EPX, 100 μM tyrosine, […], 5 μM H2O2, 0.1% DMSO, 2.0% TCA.
[formula] where A=minimal Y value (activity level of inhibited sample), B=maximal Y value (activity level of uninhibited sample), C=Log IC50, D=Hill Slope, x=concentration of inhibitor.
The column was maintained at 60° C. Samples were eluted using a gradient of 0%-100% B over 2.5 minutes, followed by equilibration with 100% A for 1 minute where A consisted of 0.1% TFA and B consisted of 90% MeOH/0.1% TFA at a flow rate of 0.6 mL/min.

[3] = MPO chlorination, 100 mM KPi pH 7.4, ten minute preincubation, read-out: APF Assay IC50 value
[4] = read-out: Amplex Red Assay IC50 value
[5] = EPX bromination, 100 mM KPi pH 7.4, ten minute preincubation, read-out: EPX IC50

| SMILES | IC50 (myeloperoxidase (MPO) [1]) [nM] | IC50 (myeloperoxidase (MPO) [2]; Amplex Red Assay IC50 value) [nM] | IC50 (EPX) [nM] | IC50 (myeloperoxidase (MPO) [1]; [3]) [nM] | IC50 (myeloperoxidase (MPO) [2]; [4]) [nM] | IC50 (EPX; [5]) [nM] |
| --- | --- | --- | --- | --- | --- | --- |
| Nc1cc(OCc2nn(-c3ccccc3)nc2C(F)F)c2nn[nH]c2n1 [Example 55, 7-((5-(Difluoromethyl)-2-phenyl-2H-1,2,3-triazol-4-yl)methoxy)-3H-[1,2,3]triazolo[4,5-b]pyridin-5-amine] | 80 | 10 | 10 | – | – | – |
| COc1ccc(-n2nc(C)c(COc3cc(N)nc4[nH]nnc34)n2)cc1 [Example 11, 7-((2-(4-Methoxyphenyl)-5-methyl-2H-1,2,3-triazol-4-yl)methoxy)-3H-[1,2,3]triazolo[4,5-b]pyridin-5-amine] | – | – | – | 170 | 20 | 40 |
| CCn1nc(COc2cc(N)nc3[nH]nnc23)cc1C(F)(F)F [Example 6, 7-((1-Ethyl-5-(trifluoromethyl)-1H-pyrazol-3-yl)methoxy)-3H-[1,2,3]triazolo[4,5-b]pyridin-5-amine] | – | – | – | 130 | 20 | 70 |
| Cn1ncc2c(COc3cc(N)nc4[nH]nnc34)cccc21 [Example 15, 7-((1-Methyl-1H-indazol-4-yl)methoxy)-3H-[1,2,3]triazolo[4,5-b]pyridin-5-amine] | – | – | – | 60 | 20 | 40 |
| Nc1cc(OCC2COc3ccccc3C2)c2nn[nH]c2n1 (stereo not shown) [Example 34, 7-(Chroman-3-ylmethoxy)-3H-[1,2,3]triazolo[4,5-b]pyridin-5-amine] | – | – | – | 790 | 1390 | – |
| CS(=O)(=O)N1CCCCC1COc1cc(N)nc2[nH]nnc12 (stereo not shown) [Example 86, 7-((1-(Methylsulfonyl)piperidin-2-yl)methoxy)-3H-[1,2,3]triazolo[4,5-b]pyridin-5-amine] | – | – | – | 1100 | 2030 | – |
| Nc1cc(OCc2cc(-c3ccccc3)no2)c2nn[nH]c2n1 [Example 14, 7-((3-Phenylisoxazol-5-yl)methoxy)-3H-[1,2,3]triazolo[4,5-b]pyridin-5-amine] | 120 | 120 | – | – | – | – |
| Nc1cc(OCc2cncn2Cc2ccccc2)c2nn[nH]c2n1 [Example 28, 7-((1-Benzyl-1H-imidazol-5-yl)methoxy)-3H-[1,2,3]triazolo[4,5-b]pyridin-5-amine] | – | – | – | 1190 | 2400 | – |
| Nc1cc(OCc2cccnc2Cl)c2nn[nH]c2n1 [Example 90, 7-((2-Chloropyridin-3-yl)methoxy)-3H-[1,2,3]triazolo[4,5-b]pyridin-5-amine] | – | – | – | 50 | 110 | – |
| Cc1nn(-c2ccc(N3CCNC(=O)C3)nc2)nc1COc1cc(N)nc2[nH]nnc12 [Example 61, 4-(5-(4-(((5-Amino-3H-[1,2,3]triazolo[4,5-b]pyridin-7-yl)oxy)methyl)-5-methyl-2H-1,2,3-triazol-2-yl)pyridin-2-yl)piperazin-2-one] | – | – | – | 910 | 90 | – |
| COc1cccc(-n2nc(C)c(COc3cc(N)nc4[nH]nnc34)n2)c1 [Example 13, 7-((2-(3-Methoxyphenyl)-5-methyl-2H-1,2,3-triazol-4-yl)methoxy)-3H-[1,2,3]triazolo[4,5-b]pyridin-5-amine] | – | – | – | 100 | 30 | – |
| Cc1oc(-c2ccc(S(C)(=O)=O)cc2)nc1CSc1cc(N)nc2[nH]nnc12 [Example 46, 7-((5-Methyl-2-(4-(methylsulfonyl)phenyl)oxazol-4-yl)methylthio)-3H-[1,2,3]triazolo[4,5-b]pyridin-5-amine] | – | – | – | 470 | 90 | – |
